# Results from article PMC6271338, “Synthesis and Cytotoxic Evaluation of Alkoxylated Chalcones” (Molecules, 2014).
# Key:
# HepG2 cells = test: In vitro anti-proliferative SRB assay, HepG2; assay type: cell-based, human; conditions: for inhibition at 10 µM / IC50: Homo sapiens; for IC50: HepG2, increasing concentrations up to 30 μM, mean ± SD of at least three independent experiments; for SI (CC50 HMLE/IC50 HepG2) / SI (CC50 L02/IC50 HepG2): selectivity index; for SI (CC50 HMLE/IC50 HepG2): HMLE vs HepG2; for SI (CC50 L02/IC50 HepG2): L02 vs HepG2
# Procedure: (§1) HepG2 and MCF7 cells were grown in the Eagle’s minimum essential medium with Earle’s balanced salts (MEM-EBSS) medium, HeLa, A549 and L02 cells were grown in Dulbecco’s Modified Eagle Media (DMEM), SW1990 cells were grown in RPMI-1640 medium, and HMLE cell were grown in DMEM/F-12 medium. […]
# (§2) Cells were seeded into 96-well plates (4000 cells/well) and incubated at 37 °C in a humidified 5% CO2 atmosphere. After 24 h, the cells were treated with different concentrations of the compounds for 48 h in triplicate to generate dose-response curves. Cell viability was evaluated using the sulforhodamine B (SRB) assay as previous described.
# [1] = Cytotoxicity (SRB) against non-tumoral HMLE cells; assay type: cell-based, human; conditions: human, HMLE cells (non-tumoral human mammary epithelial cells); increasing concentrations up to 100 μM; mean ± SD of at least three independent experiments; read-out: Normal Human Cell Lines, CC50, HMLE
# Procedure: (§3) All compounds were also evaluated for their cytotoxic activity against two non-tumoral human cell lines named human mammary epithelial cell (HMLE) and L02 (a human liver cell line) in Table 2 and SI values between the CC50 in non-tumoral cell lines and IC50 in tumoral cells calculated.
# as §1
# as §2, with “described. […] Etoposide was used as the positive control.” for “described.”
# MCF-7 cells = test: In vitro anti-proliferative SRB assay, MCF-7; assay type: cell-based, human; conditions: for IC50: Homo sapiens, MCF7, increasing concentrations up to 30 μM, mean ± SD of at least three independent experiments; for SI (CC50 HMLE/IC50 MCF7) / SI (CC50 L02/IC50 MCF7): selectivity index; for SI (CC50 HMLE/IC50 MCF7): HMLE vs MCF7; for SI (CC50 L02/IC50 MCF7): L02 vs MCF7
# Procedure: as §1, §2
# HeLa cells = test: In vitro anti-proliferative SRB assay, HeLa; assay type: cell-based, human; conditions: for IC50: Homo sapiens, HeLa, increasing concentrations up to 30 μM, mean ± SD of at least three independent experiments; for SI (CC50 HMLE/IC50 Hela) / SI (CC50 L02/IC50 Hela): selectivity index; for SI (CC50 HMLE/IC50 Hela): HMLE vs HeLa; for SI (CC50 L02/IC50 Hela): L02 vs HeLa
# Procedure: as §1, §2
# [2] = Cytotoxicity (SRB) against non-tumoral L02 cells; assay type: cell-based, human; conditions: human, L02 cells (non-tumoral human liver cell line); increasing concentrations up to 100 μM; mean ± SD of at least three independent experiments; read-out: Normal Human Cell Lines, CC50, L02
# Procedure: as §3, §1
# as §2, with “described. […] Etoposide was used as the positive control.” for “described.”
# A549 cells = test: In vitro anti-proliferative SRB assay, A549; assay type: cell-based, human; conditions: for IC50: Homo sapiens, A549, increasing concentrations up to 30 μM, mean ± SD of at least three independent experiments; for SI (CC50 HMLE/IC50 A549) / SI (CC50 L02/IC50 A549): selectivity index; for SI (CC50 HMLE/IC50 A549): HMLE vs A549; for SI (CC50 L02/IC50 A549): L02 vs A549
# Procedure: as §1, §2
# SW1990 cells = test: In vitro anti-proliferative SRB assay, SW1990; assay type: cell-based, human; conditions: for IC50: Homo sapiens, SW1990, increasing concentrations up to 30 μM, mean ± SD of at least three independent experiments; for SI (CC50 HMLE/IC50 SW1990) / SI (CC50 L02/IC50 SW1990): selectivity index; for SI (CC50 HMLE/IC50 SW1990): HMLE vs SW1990; for SI (CC50 L02/IC50 SW1990): L02 vs SW1990
# Procedure: as §1, §2
# [3] = HepG2 cells, 10 μM, SRB assay, mean ± SD of three independent experiments
melting point [°C],IC50 (MCF-7 cells) [µM],IC50 (HeLa cells) [µM],IC50 (HepG2 cells) [µM],IC50 (A549 cells) [µM],IC50 (SW1990 cells) [µM],Compound,inhibition at 10 µM (HepG2 cells; [3]) [%],CC50 at 48 h [1] [µM],SI (CC50 HMLE/IC50 MCF7) (MCF-7 cells),SI (CC50 L02/IC50 MCF7) (MCF-7 cells),SI (CC50 HMLE/IC50 Hela) (HeLa cells),SI (CC50 L02/IC50 Hela) (HeLa cells),SI (CC50 HMLE/IC50 HepG2) (HepG2 cells),SI (CC50 L02/IC50 HepG2) (HepG2 cells),CC50 at 48 h [2] [µM],SI (CC50 HMLE/IC50 A549) (A549 cells),SI (CC50 L02/IC50 A549) (A549 cells),SI (CC50 HMLE/IC50 SW1990) (SW1990 cells),SI (CC50 L02/IC50 SW1990) (SW1990 cells),Inhibition (%) (HepG2 cells; [3])
54.7 to 56.3,–,–,–,–,–,"COc1ccc(C(=O)/C=C/c2cc(OC)ccc2OC)cc1 [a13, (E)-1-(4-methoxyphenyl)-3-(2,5-dimethoxyphenyl)prop-2-en-1-one]",77 ± 2.2,–,–,–,–,–,–,–,–,–,–,–,–,–
123.7 to 125.7,–,–,–,–,–,"COc1ccc(C(=O)/C=C/c2c(OC)cccc2OC)cc1 [a14, (E)-1-(4-Methoxyphenyl)-3-(2,6-dimethoxyphenyl)prop-2-en-1-one]",78.1 ± 4.7,–,–,–,–,–,–,–,–,–,–,–,–,–
–,–,–,–,–,–,"COc1ccc(C(=O)/C=C/c2ccc(OC)c(OC)c2)cc1 [a15, (E)-1-(4-Methoxyphenyl)-3-(3,4-dimethoxyphenyl)prop-2-en-1-one]",65 ± 17.6,–,–,–,–,–,–,–,–,–,–,–,–,–
87.6 to 89.1,23.1 ± 0.79,12.4 ± 0.34,9.2 ± 0.31,21.2 ± 0.55,17.8 ± 0.07,"COc1ccc(C(=O)/C=C/c2cc(OC)cc(OC)c2)cc1 [a16, (E)-1-(4-Methoxyphenyl)-3-(3,5-dimethoxyphenyl)prop-2-en-1-one]",70.6 ± 2,3.28 ± 0.31,0.1,0.4,0.3,0.7,0.4,1.0,8.87 ± 1.83,0.2,0.4,0.2,0.5,–
115 to 118.2,–,–,–,–,–,"COc1ccc(C(=O)/C=C/c2ccc(OC)c(OCc3ccccc3)c2)cc1 [a17, (E)-1-(4-Methoxyphenyl)-3-(3-(benzyloxy)-4-methoxyphenyl)prop-2-en-1-one]",44.1 ± 6.2,–,–,–,–,–,–,–,–,–,–,–,–,–
94.4 to 96.5,–,–,–,–,–,"COc1ccc(C(=O)/C=C/c2ccc(OC)c(OC)c2OC)cc1 [a18, (E)-1-(4-Methoxyphenyl)-3-(2,3,4-trimethoxyphenyl)prop-2-en-1-one]",31.8 ± 7.3,–,–,–,–,–,–,–,–,–,–,–,–,–
122.1 to 123.7,–,–,–,–,–,"COc1ccc(C(=O)/C=C/c2cc(OC)c(OC)cc2OC)cc1 [a19, (E)-1-(4-Methoxyphenyl)-3-(2,4,5-trimethoxyphenyl)prop-2-en-1-one]",38.1 ± 10.3,–,–,–,–,–,–,–,–,–,–,–,–,–
52.6 to 54.7,28.18 ± 0.04,> 30,21 ± 1.75,> 30,> 30,"COc1cccc(OC)c1/C=C/C(=O)c1ccccc1 [b1, (E)-1-Phenyl-3-(2,6-dimethoxyphenyl)prop-2-en-1-one]",–,9.47 ± 0.39,0.3,1.2,<0.3,<1.1,0.5,1.6,–,<0.3,<1.1,<0.3,<1.1,–
79.8 to 81.4,19.1 ± 2.11,18.4 ± 0.75,14.1 ± 1.84,25.5 ± 4.14,> 30,"COc1cccc(OC)c1/C=C/C(=O)c1ccccc1C [b2, (E)-1-(2-Methylphenyl)-3-(2,6-dimethoxyphenyl)prop-2-en-1-one]",–,15 ± 0.78,0.8,1.9,0.8,1.9,1.1,2.5,35.9 ± 3.4,0.6,1.4,<0.5,<1.2,–
102.5 to 103.8,26.8 ± 4.26,13.3 ± 2.14,12.8 ± 0.5,20.7 ± 0.59,25.2 ± 2,"COc1cccc(OC)c1/C=C/C(=O)c1cccc(C)c1 [b3, (E)-1-(3-Methylphenyl)-3-(2,6-dimethoxyphenyl)prop-2-en-1-one]",–,16.2 ± 0.19,0.6,1.2,1.2,2.5,1.3,2.6,33.3 ± 1.61,0.8,1.6,0.6,1.3,–
82.7 to 84.5,25.44 ± 0.15,18.6 ± 0.36,19.5 ± 1.28,22.1 ± 0.6,> 30,"COc1cccc(OC)c1/C=C/C(=O)c1ccc(C)cc1 [b4, (E)-1-(4-Methylphenyl)-3-(2,6-dimethoxyphenyl)prop-2-en-1-one]",–,13.8 ± 1.69,0.5,2.3,0.7,3.2,0.7,3.1,59.6 ± 5.56,0.6,2.7,<0.5,<2.0,–
–,–,–,–,–,–,(E)-1-(4-Methoxyphenyl)-3-(4-carbonylphenyl)prop-2-en-1-one [a7],–,–,–,–,–,–,–,–,–,–,–,–,–,32.7 ± 3.0
